Earlier results in paper PMC4061246 (Biochimica et biophysica acta, 2014).

Details: reported

In the case of `Cc1cc(C#N)cc(C)c1Oc1nc(Nc2ccc(C#N)cc2)nc(N)c1Br` [etravirine], the aqueous solubility is given as < 1 µg/mL.

For `Cc1cc(/C=C/C#N)cc(C)c1Nc1ccnc(Nc2ccc(C#N)cc2)n1` [rilpivirine], the aqueous solubility is listed as 0.02 to 0.24 µg/mL.
